Data from patent US6818657B1, “Bioprecursors of a retinoic derivative and pharmaceutical and/or cosmetic compositions” (Pierre Fabre Dermo-Cosmetique, priority 1999, dated 2004).

Legend:
[1] = target: T1, recombinant β-glucocerebrosidase (Homo sapiens, UniProt P04062); experiment: Michaelis constants (Km) and Vm of recombinant β-glucocerebrosidase for pseudosubstrates; type: biochemical; settings: phthalate buffer pH 5.6 (0.025 M), taurocholate 5 mM, purified β-glucocerebrosidase, 30 minutes incubation
T1 construct: histidine tail (His tag) (C); made in house
T1 sequence (P04062 40-536): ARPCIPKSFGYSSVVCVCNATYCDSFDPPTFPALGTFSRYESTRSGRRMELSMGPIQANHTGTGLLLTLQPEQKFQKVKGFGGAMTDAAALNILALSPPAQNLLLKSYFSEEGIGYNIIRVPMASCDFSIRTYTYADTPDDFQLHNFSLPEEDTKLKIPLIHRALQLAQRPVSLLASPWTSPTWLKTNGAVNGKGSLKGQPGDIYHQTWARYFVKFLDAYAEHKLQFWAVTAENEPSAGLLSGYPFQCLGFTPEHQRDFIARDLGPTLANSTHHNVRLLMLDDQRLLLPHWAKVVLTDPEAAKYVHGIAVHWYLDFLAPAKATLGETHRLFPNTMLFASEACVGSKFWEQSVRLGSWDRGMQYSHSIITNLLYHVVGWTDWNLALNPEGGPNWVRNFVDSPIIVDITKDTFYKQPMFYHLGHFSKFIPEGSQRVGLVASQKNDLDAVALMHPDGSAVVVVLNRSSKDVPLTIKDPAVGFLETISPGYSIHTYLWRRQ
Method: After confirming that β-glucocerebrosidase is expressed in the keratinocytes, we produced a recombinant enzyme in the baculovirus system. A histidine tail was added to the COOH end of the protein to allow it to be purified by affinity column chromatography.
Thus, we were able to determine the Michaelis constants (Km) and the Vm values of the recombinant β-glucocerebrosidase in particular for the retinoic acid-arbutin glucoconjugate. The kinetics measurements are carried out in a phthalate buffer at pH 5.6 (0.025 M) containing taurocholate (5 mM), purified β-glucocerebrosidase and the test conjugate at various concentrations. The incubation lasts 30 minutes and the amount of hydroquinone-retinoic acid conjugate released is assayed by HPLC. The table below gives the results obtained. […] As regards their rates of hydrolysis, these are lower and thus allow effects to be obtained over time.

[2] = Distribution in the stratum corneum after topical application; type: in vivo

Cc1cc(=O)oc2cc(O[C@@H]3O[C@H](CO)[C@@H](O)[C@H](O)[C@H]3O)ccc12 [4-Methylumbelliferyl-glucopyranoside, 4-methyl-umbelliferyl-β-D-glucopyranoside]
Km [1]: 2800 ± 700 µM
Vm weighted by the amount of soluble proteins [1]: 4000 ± 1000 nmol/h/mg

CC1=C(/C=C/C(C)=C/C=C/C(C)=C/C(=O)O)C(C)(C)CCC1 [retinoic acid]
location in the stratum corneum after topical application ([2]; in vivo): accumulate in the upper layers of the stratum corneum after topical application and are removed by desquamation

Cc1c(C)c2c(c(C)c1O)CC[C@@](C)(CCC[C@H](C)CCC[C@H](C)CCCC(C)C)O2 [vitamin E (α-tocopherol), α-tocopherol]
location in the stratum corneum after topical application ([2]; topical application, same excipient): accumulate in the upper layers of the stratum corneum after topical application and are removed by desquamation

Cc1cc(O[C@@H]2O[C@H](CO)[C@@H](O)[C@H](O)[C@H]2O)cc2c1O[C@](C)(CCC[C@H](C)CCC[C@H](C)CCCC(C)C)CC2 [δ-Tocopheryl-glucopyranoside]
Vm weighted by the amount of soluble proteins [1]: 453 ± 20 nmol/h/mg
Km ([1]; HPLC assay): 7 ± 1 µM
